pIC50: −log10 of the molar value. Where two headings read alike, the source gives them in different places.
Tests used:
H 3211 NSLC cells = assay: IC50 of continuous and pulsed exposure to SDC-TRAPs; format: cell-based
[1] = Stability in mouse plasma; format: in vitro ADME; settings: 1 h

Row | SMILES | % Remaining ([1]; mouse, plasma, 10 μM) [%] | % Remaining ([1]; mouse plasma, 37° C.) [%] | also measured
1 | CC(C)c1cc(-c2nnc(O)n2-c2ccc3c(ccn3CCN(C)C(=O)CCCC(=O)Nc3cccc4c3CN(C3CCC(=O)NC3=O)C4=O)c2)c(O)cc1O (stereo not shown) [SDC-TRAP-0018, N1-(2-(5-(3-(2,4-dihydroxy-5-isopropylphenyl)-5-hydroxy-4H-1,2,4-triazol-4-yl)-1H-indol-1-yl)ethyl)-N5-(2-(2,6-dioxopiperidin-3-yl)-1-oxoisoindolin-4-yl)-N1-methylglutaramide] | – | – | pIC50 (H 3211 NSLC cells; 1 h, read-out: IC50, 1 h-pulse/71 h-compound free, H 3211 NSLC cells, 7.5 × 10^3 cells/well, 1st of 2 columns): < 5.52; pIC50 (H 3211 NSLC cells; 1 h, read-out: IC50, 1 h-pulse/71 h-compound free, H 3211 NSLC cells, 7.5 × 10^3 cells/well, 2nd of 2 columns): < 5.52; pIC50 (H 3211 NSLC cells; 72 h, read-out: IC50, 72 h-continuous, H 3211 NSLC cells, 7.5 × 10^3 cells/well, 1st of 3 columns): 6.54; pIC50 (H 3211 NSLC cells; 72 h, read-out: IC50, 72 h-continuous, H 3211 NSLC cells, 7.5 × 10^3 cells/well, 2nd of 3 columns): 6.08; pIC50 (H 3211 NSLC cells; 72 h, read-out: IC50, 72 h-continuous, H 3211 NSLC cells, 7.5 × 10^3 cells/well, 3rd of 3 columns): 6.13
2 | CCNC(=O)c1nnc(-c2cc(C(C)C)c(O)cc2O)n1-c1ccc(CN2CCC(C(=O)N3CCC(COC(=O)Nc4cccc5c4CN(C4CCC(=O)NC4=O)C5=O)CC3)CC2)cc1 (stereo not shown) [SDC-TRAP-0124, (1-(1-(4-(3-(2,4-Dihydroxy-5-isopropylphenyl)-5-(ethylcarbamoyl)-4H-1,2,4-triazol-4-yl)benzyl)piperidine-4-carbonyl)piperidin-4-yl)methyl (2-(2,6-dioxopiperidin-3-yl)-1-oxoisoindolin-4-yl)carbamate] | 112 | – | –
3 | CCNC(=O)c1nnc(-c2cc(C(C)C)c(O)cc2O)n1-c1ccc(CN2CCC(C(=O)N3CCN(c4cc(C)c(OC(=O)Nc5cccc6c5CN(C5CCC(=O)NC5=O)C6=O)c(C)c4)CC3)CC2)cc1 (stereo not shown) [SDC-TRAP-0195, 4-(4-(1-(4-(3-(2,4-dihydroxy-5-isopropylphenyl)-5-(ethylcarbamoyl)-4H-1,2,4-triazol-4-yl)benzyl)piperidine-4-carbonyl)piperazin-1-yl)-2,6-dimethylphenyl (2-(2,6-dioxopiperidin-3-yl)-1-oxoisoindolin-4-yl)carbamate] | 98.4 | – | –
4 | CCNC(=O)c1nnc(-c2cc(C(C)C)c(O)cc2O)n1-c1ccc2c(ccn2CCC2CCN(C(=O)Oc3ccc4nc5c(c(CC)c4c3)Cn3c-5cc4c(c3=O)COC(=O)[C@]4(O)CC)CC2)c1 [SDC-TRAP-0205, (S)-4,11-diethyl-4-hydroxy-3,14-dioxo-3,4,12,14-tetrahydro-1H-pyrano[3′,4′:6,7]indolizino[1,2-b]quinolin-9-yl 4-(2-(5-(3-(2,4-dihydroxy-5-isopropylphenyl)-5-(ethylcarbamoyl)-4H-1,2,4-triazol-4-yl)-1H-indol-1-yl)ethyl)piperidine-1-carboxylate] | – | 58.4 | –
5 | CCNC(=O)c1nnc(-c2cc(C(C)C)c(O)cc2O)n1-c1ccc(OC2CCN(C(=O)C3CCN(C(=O)Oc4ccc5nc6c(c(CC)c5c4)Cn4c-6cc5c(c4=O)COC(=O)[C@]5(O)CC)C(C)C3)CC2)cc1 (stereo partly drawn) [SDC-TRAP-0213, (S)-4,11-diethyl-4-hydroxy-3,14-dioxo-3,4,12,14-tetrahydro-1H-pyrano[3′,4′:6,7]indolizino[1,2-b]quinolin-9-yl 4-(4-(4-(3-(2,4-dihydroxy-5-isopropylphenyl)-5-(ethylcarbamoyl)-4H-1,2,4-triazol-4-yl)phenoxy)piperidine-1-carbonyl)-2-methylpiperidine-1-carboxylate] | – | 74.7 | –
6 | CCc1c2c(nc3ccc(O)cc13)-c1cc3c(c(=O)n1C2)COC(=O)[C@@]3(CC)OC(=O)N1CCC(CCc2ccc(-n3c(O)nnc3-c3cc(C(C)C)c(O)cc3O)cc2)CC1 [SDC-TRAP-0104, (S)-4,11-diethyl-9-hydroxy-3,14-dioxo-3,4,12,14-tetrahydro-1H-pyrano[3′,4′:6,7]indolizino[1,2-b]quinolin-4-yl 4-(4-(3-(2,4-dihydroxy-5-isopropylphenyl)-5-hydroxy-4H-1,2,4-triazol-4-yl)phenethyl)piperidine-1-carboxylate] | – | 95.5 | –
7 | CCc1c2c(nc3ccc(OC(=O)N4CCN(Cc5ccc(-n6c(O)nnc6-c6cc(C(C)C)c(O)cc6O)cc5)CC4C)cc13)-c1cc3c(c(=O)n1C2)COC(=O)C3(O)CC (stereo not shown) [SDC-TRAP-0220, 4,11-diethyl-4-hydroxy-3,14-dioxo-3,4,12,14-tetrahydro-1H-pyrano[3′,4′:6,7]indolizino[1,2-b]quinolin-9-yl 4-(4-(3-(2,4-dihydroxy-5-isopropylphenyl)-5-hydroxy-4H-1,2,4-triazol-4-yl)benzyl)-2-methylpiperazine-1-carboxylate] | – | 78.3 | –
8 | CCNC(=O)c1nnc(-c2cc(C(C)C)c(O)cc2O)n1-c1ccc(Oc2ccc(C(=O)N3CCC(N(C)C(=O)Oc4ccc5nc6c(c(CC)c5c4)Cn4c-6cc5c(c4=O)COC(=O)C5(O)CC)CC3)cc2)cc1 (stereo not shown) [SDC-TRAP-0180, 4,11-Diethyl-4-hydroxy-3,14-dioxo-3,4,12,14-tetrahydro-1H-pyrano[3′,4′:6,7]indolizino[1,2-b]quinolin-9-yl (1-(4-(4-(3-(2,4-dihydroxy-5-isopropylphenyl)-5-(ethylcarbamoyl)-4H-1,2,4-triazol-4-yl)phenoxy)benzoyl)piperidin-4-yl)(methyl)carbamate] | – | 72.4 | –
9 | CCc1c2c(nc3ccc(O)cc13)-c1cc3c(c(=O)n1C2)COC(=O)C3(CC)OC(=O)CN1CCC(Cc2ccc(-n3c(O)nnc3-c3cc(C(C)C)c(O)cc3O)cc2)CC1 (stereo not shown) [SDC-TRAP-0071, 4,11-diethyl-9-hydroxy-3,14-dioxo-3,4,12,14-tetrahydro-1H-pyrano[3′,4′:6,7]indolizino[1,2-b]quinolin-4-yl 2-(4-(4-(3-(2,4-dihydroxy-5-isopropylphenyl)-5-hydroxy-4H-1,2,4-triazol-4-yl)benzyl)piperidin-1-yl)acetate] | – | 102 | –
10 | CCc1c2c(nc3ccc(O)cc13)-c1cc3c(c(=O)n1C2)COC(=O)C3(CC)OC(=O)CCC(=O)N1CCC(Cc2ccc(-n3c(O)nnc3-c3cc(C(C)C)c(O)cc3O)cc2)CC1 (stereo not shown) [SDC-TRAP-0042, 4,11-diethyl-9-hydroxy-3,14-dioxo-3,4,12,14-tetrahydro-1H-pyrano[3′,4′:6,7]indolizino[1,2-b]quinolin-4-yl 4-(4-(4-(3-(2,4-dihydroxy-5-isopropylphenyl)-5-hydroxy-4H-1,2,4-triazol-4-yl)benzyl)piperidin-1-yl)-4-oxobutanoate] | – | 74 | –
11 | CCNC(=O)c1nnc(-c2cc(C(C)C)c(O)cc2O)n1-c1ccc(Oc2ccc(N(C)C(=O)Oc3ccc4nc5c(c(CC)c4c3)Cn3c-5cc4c(c3=O)COC(=O)[C@]4(O)CC)cc2)cc1 [SDC-TRAP-0145, (S)-4,11-diethyl-4-hydroxy-3,14-dioxo-3,4,12,14-tetrahydro-1H-pyrano[3′,4′:6,7]indolizino[1,2-b]quinolin-9-yl (4-(4-(3-(2,4-dihydroxy-5-isopropylphenyl)-5-(ethylcarbamoyl)-4H-1,2,4-triazol-4-yl)phenoxy)phenyl)(methyl)carbamate] | – | 14.1 | –
12 | CCNC(=O)c1nnc(-c2cc(C(C)C)c(O)cc2O)n1-c1ccc(Oc2ccc(OC(=O)N(C)CCOC(=O)Nc3cccc4c3CN(C3CCC(=O)NC3=O)C4=O)cc2)cc1 (stereo not shown) | 51.2 | – | –
13 | CC(C)c1cc(-c2nnc(O)n2-c2ccc(CN3CCN(C(=O)Oc4ccc(COC(=O)Nc5cccc6c5CN(C5CCC(=O)NC5=O)C6=O)cc4)CC3)c(F)c2)c(O)cc1O (stereo not shown) [SDC-TRAP-0171, 4-((((2-(2,6-dioxopiperidin-3-yl)-1-oxoisoindolin-4-yl)carbamoyl)oxy)methyl)phenyl-4-(4-(3-(2,4-dihydroxy-5-isopropylphenyl)-5-hydroxy-4H-1,2,4-triazol-4-yl)-2-fluorobenzyl)piperazine-1-carboxylate] | 17.7 | – | –
14 | CCc1c2c(nc3ccc(OC(=O)N4CCC(Cn5ccc6cc(-n7c(O)nnc7-c7cc(C(C)C)c(O)cc7O)ccc65)CC4)cc13)-c1cc3c(c(=O)n1C2)COC(=O)C3(O)CC (stereo not shown) [SDC-TRAP-0186] | – | 57.9 | –
15 | CCNC(=O)c1nnc(-c2cc(C(C)C)c(O)cc2O)n1-c1ccc(Oc2ccc(C(=O)N3CCC(OC(=O)OC4(CC)C(=O)OCc5c4cc4n(c5=O)Cc5c-4nc4ccc(O)cc4c5CC)CC3)cc2)cc1 (stereo not shown) [SDC-TRAP-0203, 4,11-Diethyl-9-hydroxy-3,14-dioxo-3,4,12,14-tetrahydro-1H-pyrano[3′,4′:6,7]indolizino[1,2-b]quinolin-4-yl (1-(4-(4-(3-(2,4-dihydroxy-5-isopropylphenyl)-5-(ethylcarbamoyl)-4H-1,2,4-triazol-4-yl)phenoxy)benzoyl)piperidin-4-yl) carbonate] | – | 71.2 | –
16 | CCNC(=O)c1nnc(-c2cc(C(C)C)c(O)cc2O)n1-c1ccc(OC2CCN(C(=O)Oc3c(C)cc(COC(=O)Nc4cccc5c4CN(C4CCC(=O)NC4=O)C5=O)cc3C)CC2)cc1 (stereo not shown) [SDC-TRAP-0187, 4-((((2-(2,6-dioxopiperidin-3-yl)-1-oxoisoindolin-4-yl)carbamoyl)oxy)methyl)-2,6-dimethylphenyl 4-(4-(3-(2,4-dihydroxy-5-isopropylphenyl)-5-(ethylcarbamoyl)-4H-1,2,4-triazol-4-yl)phenoxy)piperidine-1-carboxylate] | 102 | – | –
17 | CC(C)c1cc(-c2nnc(O)n2-c2ccc(CN3CCN(C(=O)COC(=O)Nc4cccc5c4CN(C4CCC(=O)NC4=O)C5=O)CC3)cc2)c(O)cc1O (stereo not shown) [SDC-TRAP-0121, 2-(4-(4-(3-(2,4-dihydroxy-5-isopropylphenyl)-5-hydroxy-4H-1,2,4-triazol-4-yl)benzyl)piperazin-1-yl)-2-oxoethyl(2-(2,6-dioxopiperidin-3-yl)-1-oxoisoindolin-4-yl)carbamate] | 89.1 | – | –
18 | COc1cc(O)c(-c2nnc(C(=O)NC(C)C)n2-c2ccc(CN3CCC(C(=O)Nc4cccc5c4CN(C4CCC(=O)NC4=O)C5=O)CC3)cc2)cc1C(C)C (stereo not shown) [SDC-TRAP-0115, N-(2-(2,6-dioxopiperidin-3-yl)-1-oxoisoindolin-4-yl)-1-(4-(3-(2-hydroxy-5-isopropyl-4-methoxyphenyl)-5-(isopropylcarbamoyl)-4H-1,2,4-triazol-4-yl)benzyl)piperidine-4-carboxamide] | 85.9 | – | –
